# Patent US20230151003A1, “COMPOUNDS AND METHODS OF USE” (Exelixis, Inc., priority 2020, published 2023)
# Where a name gives a salt, the structure may show the parent alone.
# Tests used:
# [1] = target: T1, AXL (Homo sapiens, UniProt P30530); assay: AXL autophosphorylation ELISA in A-172 cells; type: cell-based; details: Table 3 Cellular Activities, Gas6-stimulated, phospho-AXL ELISA
# T1 construct: endogenous in cells; host or cells: A-172 glioblastoma cells (ATCC #CRL-1620)
# T1 sequence (P30530 26-894): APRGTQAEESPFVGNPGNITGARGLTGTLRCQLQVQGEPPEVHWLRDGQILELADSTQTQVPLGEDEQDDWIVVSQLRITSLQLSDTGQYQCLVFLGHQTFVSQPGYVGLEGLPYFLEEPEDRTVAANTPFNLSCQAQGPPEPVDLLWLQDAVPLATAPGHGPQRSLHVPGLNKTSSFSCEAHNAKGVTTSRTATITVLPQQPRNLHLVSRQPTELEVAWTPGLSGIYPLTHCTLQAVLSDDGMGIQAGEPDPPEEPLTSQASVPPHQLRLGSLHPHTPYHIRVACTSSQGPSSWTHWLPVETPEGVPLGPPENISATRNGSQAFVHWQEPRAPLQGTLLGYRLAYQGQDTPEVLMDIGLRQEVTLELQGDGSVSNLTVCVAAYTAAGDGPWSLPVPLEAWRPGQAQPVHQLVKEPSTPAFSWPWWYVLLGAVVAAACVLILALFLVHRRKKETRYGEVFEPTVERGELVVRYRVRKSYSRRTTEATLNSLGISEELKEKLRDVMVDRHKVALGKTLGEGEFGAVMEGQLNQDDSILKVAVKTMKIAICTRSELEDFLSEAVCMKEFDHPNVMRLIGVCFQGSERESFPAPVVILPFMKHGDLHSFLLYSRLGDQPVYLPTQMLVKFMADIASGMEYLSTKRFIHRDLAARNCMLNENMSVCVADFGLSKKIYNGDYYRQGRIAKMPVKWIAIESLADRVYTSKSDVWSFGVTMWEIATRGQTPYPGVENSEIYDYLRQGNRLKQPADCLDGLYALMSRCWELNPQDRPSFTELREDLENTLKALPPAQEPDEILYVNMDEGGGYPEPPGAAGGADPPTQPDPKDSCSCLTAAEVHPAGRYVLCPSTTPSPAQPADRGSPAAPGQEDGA
# Protocol: A-172 glioblastoma cells (ATCC #CRL-1620) were seeded at 2.5×10^5 cells/well onto 24-well plates (Greiner #662165), in DMEM (Thermo Fisher #11995-040) containing 10% FBS (Thermo Fisher #26140-079), 1% MEM NEAA (Thermo Fisher #11140-050), 1% GlutaMax (Thermo Fisher #35050-061), and 1% Penicillin Streptomycin (Thermo Fisher #15140-122). A-172 cells were incubated at 37° C., 5% CO2 for 24 h and then starved for 24 h in serum-free medium. Test compounds were serially diluted to produce an 8-point dose curve in fresh serum-free medium to a final concentration of 0.3% DMSO (vehicle) and added to the cells and incubated for 1 h. Cells were then stimulated with 1 μg/mL recombinant human Gas6 (R&D Systems #885-GSB-500) for 15 min, washed with cold PBS, and immediately lysed with 150 μL of cold 1× lysis buffer [20 mM Tris, 137 mM sodium chloride, 2 mM EDTA, 10% glycerol, 1% NP-40 alternative, 1 mM activated sodium orthovanadate, 1 mM PefaBloc SC (Sigma-Aldrich #11429868001), protease/phosphatase inhibitor tablet (Thermo Fisher #A32959)]. Lysates were collected and 100 μL/well added into the human phospho-AXL DuoSet IC ELISA (R&D Systems #DYC2228-2). Assay was performed according to manufacturer's instructions and sample phospho-AXL concentrations were extrapolated using human phospho-AXL control (R&D Systems #841645) as a standard. Positive control wells (100% activity) contained Gas6-stimulated, DMSO-treated cell lysates. Negative control wells (0% activity) contained Gas6-stimulated, reference inhibitor-treated cell lysates. IC50 values were calculated by nonlinear regression analysis using a 4-parameter logistic curve fit in ActivityBase XE (IDBS).
# [2] = target: KDR (Homo sapiens, UniProt P35968); assay: KDR autophosphorylation ELISA in HUVEC cells; type: cell-based; parameters: endogenous in cells; host or cells: HUVEC (Lonza #C2519A); details: Table 3 Cellular Activities, VEGF165-stimulated, phospho-KDR ELISA
# Outline: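 HUVECs grown 24 h at 37 °C, then serum-starved 24 h, were preincubated 1 h with an 8-point compound series (0.3% DMSO) and stimulated with 100 ng/mL human VEGF165 for 5 min. Phospho-KDR in lysates was measured by sandwich ELISA against a phospho-KDR standard; IC50 from 4-parameter logistic fit.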
# Chain of KDR (P35968 20-1356): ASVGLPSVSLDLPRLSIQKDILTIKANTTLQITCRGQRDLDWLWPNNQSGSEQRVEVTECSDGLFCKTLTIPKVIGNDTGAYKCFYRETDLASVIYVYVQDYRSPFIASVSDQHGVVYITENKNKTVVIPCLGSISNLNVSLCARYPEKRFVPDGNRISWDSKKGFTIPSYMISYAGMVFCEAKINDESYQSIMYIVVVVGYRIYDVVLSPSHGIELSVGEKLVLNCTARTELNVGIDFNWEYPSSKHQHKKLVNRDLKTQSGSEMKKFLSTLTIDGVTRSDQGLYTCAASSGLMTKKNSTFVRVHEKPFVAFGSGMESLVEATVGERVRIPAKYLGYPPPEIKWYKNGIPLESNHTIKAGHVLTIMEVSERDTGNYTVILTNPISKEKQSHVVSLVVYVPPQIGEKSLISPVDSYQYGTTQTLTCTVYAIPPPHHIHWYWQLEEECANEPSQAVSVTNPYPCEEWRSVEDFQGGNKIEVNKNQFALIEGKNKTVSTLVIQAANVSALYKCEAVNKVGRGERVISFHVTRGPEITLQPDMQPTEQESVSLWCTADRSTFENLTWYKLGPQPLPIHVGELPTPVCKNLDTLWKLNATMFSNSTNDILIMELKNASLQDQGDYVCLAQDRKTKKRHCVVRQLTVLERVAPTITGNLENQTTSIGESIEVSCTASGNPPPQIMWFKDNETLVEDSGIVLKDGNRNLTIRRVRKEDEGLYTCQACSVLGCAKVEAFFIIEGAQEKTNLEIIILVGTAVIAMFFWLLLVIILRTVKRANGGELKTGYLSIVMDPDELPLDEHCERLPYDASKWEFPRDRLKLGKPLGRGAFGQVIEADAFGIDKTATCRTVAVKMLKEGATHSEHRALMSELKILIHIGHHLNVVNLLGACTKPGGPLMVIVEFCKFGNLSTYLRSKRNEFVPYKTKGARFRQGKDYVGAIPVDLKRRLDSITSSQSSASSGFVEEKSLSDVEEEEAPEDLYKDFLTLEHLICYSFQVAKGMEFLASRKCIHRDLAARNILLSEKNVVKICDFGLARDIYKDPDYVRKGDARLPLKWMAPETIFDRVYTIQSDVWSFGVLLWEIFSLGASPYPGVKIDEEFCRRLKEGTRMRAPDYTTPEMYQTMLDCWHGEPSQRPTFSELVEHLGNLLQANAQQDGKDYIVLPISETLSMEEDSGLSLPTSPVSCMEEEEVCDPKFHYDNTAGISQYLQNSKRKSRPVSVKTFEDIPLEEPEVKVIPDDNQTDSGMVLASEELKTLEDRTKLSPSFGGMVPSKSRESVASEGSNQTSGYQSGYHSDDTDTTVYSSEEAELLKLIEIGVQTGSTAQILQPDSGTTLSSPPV
SMILES,IC50 [1],IC50 [2]
"COc1cc2nccc(Oc3ccc(NC(=O)c4cccn(-c5ccnc(O)c5)c4=O)cc3F)c2nc1OC [Compound 248, N-[4-[(6,7-Dimethoxy-1,5-naphthyridin-4-yl)oxy]-3-fluorophenyl]-1-(2-hydroxypyridin-4-yl)-2-oxopyridine-3-carboxamide hydrochloride]",300 to 1000 nM,300 to 1000 nM
"COc1cc2nccc(Oc3ccc(NC(=O)c4c5n(cc(-c6ccco6)c4=O)CCOC5)cc3)c2nc1OC [Compound 298, N-[4-[(6,7-Dimethoxy-1,5-naphthyridin-4-yl)oxy]phenyl]-7-(furan-2-yl)-8-oxo-3,4-dihydro-1H-pyrido[2,1-c][1,4]oxazine-9-carboxamide]",≤ 100 nM,300 to 1000 nM
"COc1cc2nccc(Oc3ccc(NC(=O)c4cn(CCF)c(C)c(-c5cccs5)c4=O)cc3F)c2nc1OC [Compound 327, N-[4-[(6,7-Dimethoxy-1,5-naphthyridin-4-yl)oxy]-3-fluorophenyl]-1-(2-fluoroethyl)-6-methyl-4-oxo-5-thiophen-2-ylpyridine-3-carboxamide]",≤ 100 nM,100 to 300 nM
"COc1cc2nccc(Oc3ccc(NC(=O)c4cc(C(C)=O)c(C)n(-c5ccco5)c4=O)cc3F)c2nc1OC [Compound 236, 5-Acetyl-N-[4-[(6,7-dimethoxy-1,5-naphthyridin-4-yl)oxy]-3-fluorophenyl]-1-(furan-2-yl)-6-methyl-2-oxopyridine-3-carboxamide]",≤ 100 nM,300 to 1000 nM
"COc1cc2nccc(Oc3ccc(NC(=O)c4cnc(C)c(-c5ccc(F)cn5)c4O)cc3F)c2nc1OC [Compound 85, N-[4-[(6,7-Dimethoxy-1,5-naphthyridin-4-yl)oxy]-3-fluorophenyl]-5-(5-fluoropyridin-2-yl)-4-hydroxy-6-methylpyridine-3-carboxamide]",≤ 100 nM,≤ 100 nM
"COc1cc2nccc(Oc3ccc(NC(=O)c4c5n(cc(-c6cccs6)c4=O)CCOC5)cc3)c2nc1OC [Compound 299, N-[4-[(6,7-Dimethoxy-1,5-naphthyridin-4-yl)oxy]phenyl]-8-oxo-7-thiophen-2-yl-3,4-dihydro-1H-pyrido[2,1-c][1,4]oxazine-9-carboxamide]",≤ 100 nM,300 to 1000 nM
"COc1cc2nccc(Oc3ccc(NC(=O)c4cccn(-c5ccc(F)cn5)c4=O)cc3F)c2nc1OC [Compound 42, N-[4-[(6,7-Dimethoxy-1,5-naphthyridin-4-yl)oxy]-3-fluorophenyl]-1-(5-fluoropyridin-2-yl)-2-oxopyridine-3-carboxamide]",≤ 100 nM,≤ 100 nM
"COc1cc2nccc(Oc3ccc(NC(=O)c4c(C)ncc(-c5cccnc5)c4O)cc3F)c2nc1OC [Compound 228, N-[4-[(6,7-Dimethoxy-1,5-naphthyridin-4-yl)oxy]-3-fluorophenyl]-4-hydroxy-2-methyl-5-pyridin-3-ylpyridine-3-carboxamide]",≤ 100 nM,≤ 100 nM
"COc1cc2nccc(Oc3ccc(NC(=O)c4c(C)ncc(-c5ccc(F)cn5)c4O)cc3F)c2nc1OC [Compound 68, N-[4-[(6,7-Dimethoxy-1,5-naphthyridin-4-yl)oxy]-3-fluorophenyl]-5-(5-fluoropyridin-2-yl)-4-hydroxy-2-methylpyridine-3-carboxamide]",≤ 100 nM,≤ 100 nM
"COc1cnc2c(Oc3ccc(NC(=O)c4c(C)ncc(-c5ccccn5)c4O)cc3F)ccnc2c1 [Compound 70, N-[3-Fluoro-4-[(7-methoxy-1,5-naphthyridin-4-yl)oxy]phenyl]-4-hydroxy-2-methyl-5-pyridin-2-ylpyridine-3-carboxamide]",≤ 100 nM,≤ 100 nM
"CCc1c(C(=O)Nc2ccc(Oc3ccnc4cc(OC)c(OC)nc34)c(F)c2)c(=O)c(-c2ccco2)c(C)n1C [Compound 324, N-[4-[(6,7-Dimethoxy-1,5-naphthyridin-4-yl)oxy]-3-fluorophenyl]-2-ethyl-5-(furan-2-yl)-1,6-dimethyl-4-oxopyridine-3-carboxamide]",≤ 100 nM,≤ 100 nM
"COc1cc2nccc(Oc3ccc(NC(=O)c4ccc(C)n(-c5ccnc(F)c5)c4=O)cc3F)c2nc1OC [Compound 233, N-[4-[(6,7-Dimethoxy-1,5-naphthyridin-4-yl)oxy]-3-fluorophenyl]-1-(2-fluoropyridin-4-yl)-6-methyl-2-oxopyridine-3-carboxamide]",≤ 100 nM,≤ 100 nM
"COc1cc2nccc(Oc3ccc(NC(=O)c4ccc(C)n(-c5cc[n+]([O-])cc5)c4=O)cc3F)c2nc1OC [Compound 231, N-[4-[(6,7-Dimethoxy-1,5-naphthyridin-4-yl)oxy]-3-fluorophenyl]-6-methyl-1-(1-oxidopyridin-1-ium-4-yl)-2-oxopyridine-3-carboxamide]",≤ 100 nM,100 to 300 nM

# The next lines start with the values.
IC50 [1],IC50 [2],SMILES
≤ 100 nM,300 to 1000 nM,"COc1cc2nccc(Oc3ccc(NC(=O)c4c(C)n(C)c(C)c(-c5cc6ccccc6o5)c4=O)cc3F)c2nc1OC [Compound 261, 5-(1-Benzofuran-2-yl)-N-[4-[(6,7-dimethoxy-1,5-naphthyridin-4-yl)oxy]-3-fluorophenyl]-1,2,6-trimethyl-4-oxopyridine-3-carboxamide]"
≤ 100 nM,≤ 100 nM,"COc1ccc2nccc(Oc3ccc(NC(=O)c4ccc(C)n(-c5ncc(F)cc5C)c4=O)cc3F)c2n1 [Compound 53, N-[3-Fluoro-4-[(6-methoxy-1,5-naphthyridin-4-yl)oxy]phenyl]-1-(5-fluoro-3-methylpyridin-2-yl)-6-methyl-2-oxopyridine-3-carboxamide]"
≤ 100 nM,300 to 1000 nM,"COc1cc2nccc(Oc3ccc(NC(=O)c4cn(C)c(C)c(-c5ccc(F)cn5)c4=O)cc3)c2nc1OC [Compound 86, N-[4-[(6,7-Dimethoxy-1,5-naphthyridin-4-yl)oxy]phenyl]-5-(5-fluoropyridin-2-yl)-1,6-dimethyl-4-oxopyridine-3-carboxamide]"
≤ 100 nM,300 to 1000 nM,"CCOc1ccn(-c2ccc(F)cn2)c(=O)c1C(=O)Nc1ccc(Oc2ccnc3cc(OC)c(OC)nc23)cc1 [Compound 244, N-[4-[(6,7-Dimethoxy-1,5-naphthyridin-4-yl)oxy]phenyl]-4-ethoxy-1-(5-fluoropyridin-2-yl)-2-oxopyridine-3-carboxamide]"
≤ 100 nM,300 to 1000 nM,"COc1cc2nccc(Oc3ccc(NC(=O)c4c5n(cc(-c6ccco6)c4=O)CCOC5)cc3F)c2nc1OC [Compound 297, N-[4-[(6,7-Dimethoxy-1,5-naphthyridin-4-yl)oxy]-3-fluorophenyl]-7-(furan-2-yl)-8-oxo-3,4-dihydro-1H-pyrido[2,1-c][1,4]oxazine-9-carboxamide]"
≤ 100 nM,300 to 1000 nM,"COc1cc2nccc(Oc3ccc(NC(=O)c4cc(C(C)=O)c(C)n(-c5ccco5)c4=O)cc3)c2nc1OC [Compound 237, 5-Acetyl-N-[4-[(6,7-dimethoxy-1,5-naphthyridin-4-yl)oxy]phenyl]-1-(furan-2-yl)-6-methyl-2-oxopyridine-3-carboxamide]"
